# From paper PMC12669040, “Tumour-specific STING agonist synthesis via a two-component prodrug system” (Nature Chemistry, 2025)
# Values joined by “and” are separate entries in the source; they are usually repeats but may differ in a detail not shown here. Equal entries are not always repeated.
# Tests used:
# [1] = Colorimetric alkylation rate constant assay with TNB^2− as non-specific thiol; assay type: physicochemical; set-up: second-order: unit not given here; conditions: for remaining [B]: in µM
# [2] = Colorimetric alkylation rate constant assay with thiol N1; assay type: physicochemical; conditions: for remaining [A]: N1 from calibration curve (N1 in uM); for remaining [A] / remaining [B]: in µM
# [3] = Time 2891 sec, [B]0 = 250, Replicates 1-3
# [4] = Time 3071 sec, [B]0 = 250, Replicates 1-3
# [5] = Time 3252 sec, [B]0 = 250, Replicates 1-3
# [6] = Time 3433 sec, [B]0 = 250, Replicates 1-3
# [7] = Time 3613 sec, [B]0 = 250, Replicates 1-3
smiles,measurement,setting,value
O=C(CCl)Nc1ccccc1C(=O)O [Compound C5],remaining [B],"[1]; Replicate 1, 723 sec, [B]0 = 250",246.309
same,remaining [B],"[1]; Replicate 1, 903 sec, [B]0 = 250",246.195
same,remaining [B],"[1]; Replicate 1, 1084 sec, [B]0 = 250",246.107
same,remaining [B],"[1]; Replicate 1, 1265 sec, [B]0 = 250",246.422
same,remaining [B],"[1]; Replicate 1, 1445 sec, [B]0 = 250",246.548
same,remaining [B],"[1]; Replicate 1, 1626 sec, [B]0 = 250",246.346
same,remaining [B],"[1]; Replicate 1, 1806 sec, [B]0 = 250",245.931
same,remaining [B],"[1]; Replicate 1, 1988 sec, [B]0 = 250",245.767
same,remaining [B],"[1]; Replicate 1, 2168 sec, [B]0 = 250",245.616
same,remaining [B],"[1]; Replicate 1, 2349 sec, [B]0 = 250",245.553
same,remaining [B],"[1]; Replicate 1, 2530 sec, [B]0 = 250",245.464
same,remaining [B],"[1]; Replicate 1, 2710 sec, [B]0 = 250",245.427
same,remaining [B],"[1]; Replicate 2, 542 sec, [B]0=250",245.747
same,remaining [B],"[1]; Replicate 2, 723 sec, [B]0=250",245.533
same,remaining [B],"[1]; Replicate 2, 903 sec, [B]0=250",245.445
same,remaining [B],"[1]; Replicate 2, 1084 sec, [B]0=250",245.382
same,remaining [B],"[1]; Replicate 2, 1265 sec, [B]0=250",245.218
same,remaining [B],"[1]; Replicate 2, 1445 sec, [B]0=250",245.168
same,remaining [B],"[1]; Replicate 2, 1626 sec, [B]0=250",245.067
same,remaining [B],"[1]; Replicate 2, 1806 sec, [B]0=250",244.991
same,remaining [B],"[1]; Replicate 2, 1988 sec, [B]0=250",244.928
same,remaining [B],"[1]; Replicate 2, 2168 sec, [B]0=250",244.827
same,remaining [B],"[1]; Replicate 2, 2349 sec, [B]0=250",244.739
same,remaining [B],"[1]; Replicate 2, 2530 sec, [B]0=250",244.676
same,remaining [B],"[1]; Replicate 2, 2710 sec, [B]0=250",244.563
same,remaining [B],"[1]; Replicate 3, 723 sec, [B]0=250",245.666
same,remaining [B],"[1]; Replicate 3, 903 sec, [B]0=250",245.565
same,remaining [B],"[1]; Replicate 3, 1084 sec, [B]0=250",245.427
same,remaining [B],"[1]; Replicate 3, 1265 sec, [B]0=250",245.389
same,remaining [B],"[1]; Replicate 3, 1445 sec, [B]0=250",245.313
same,remaining [B],"[1]; Replicate 3, 1626 sec, [B]0=250",245.149
same,remaining [B],"[1]; Replicate 3, 1806 sec, [B]0=250",245.137
same,remaining [B],"[1]; Replicate 3, 1988 sec, [B]0=250",245.036
same,remaining [B],"[1]; Replicate 3, 2168 sec, [B]0=250",244.986
same,remaining [B],"[1]; Replicate 3, 2349 sec, [B]0=250",244.872
same,remaining [B],"[1]; Replicate 3, 2530 sec, [B]0=250",244.809
same,remaining [B],"[1]; Replicate 3, 2710 sec, [B]0=250",244.62
same,second-order,[1]; [3],0.0002299 and 0.0002236 and 0.0001928
same,remaining [B],[1]; [3],244.62 and 245.338 and 244.475
same,second-order,[1]; [4],0.0002338 and 0.0002269 and 0.0001976
same,remaining [B],[1]; [4],244.544 and 245.225 and 244.386
same,second-order,[1]; [5],0.0002365 and 0.0002296 and 0.0001987
same,remaining [B],[1]; [5],244.481 and 245.2 and 244.323
same,second-order,[1]; [6],0.0002403 and 0.0002356 and 0.0002052
same,remaining [B],[1]; [6],244.343 and 245.049 and 244.235
same,second-order,[1]; [7],0.0002452 and 0.0002384 and 0.0002063
same,remaining [B],[1]; [7],244.28
same,second-order,"[1]; Time 3794 sec, [B]0 = 250, Replicates 1-3",0.0002474 and 0.0002417 and 0.0002117
same,second-order,"[1]; Time 3974 sec, [B]0 = 250, Replicates 1-3",0.0002513 and 0.0002455 and 0.0002139
same,second-order,"[1]; Time 4155 sec, [B]0 = 250, Replicates 1-3",0.0002546 and 0.0002504 and 0.0002193
same,second-order,"[1]; Time 4336 sec, [B]0 = 250, Replicates 1-3",0.000259 and 0.0002537 and 0.000222
same,second-order,"[1]; Time 4516 sec, [B]0 = 250, Replicates 1-3",0.0002623 and 0.0002543 and 0.0002291
same,second-order,"[1]; Time 4697 sec, [B]0 = 250, Replicates 1-3",0.0002656 and 0.0002598 and 0.0002275
same,second-order,"[1]; Time 4878 sec, [B]0 = 250, Replicates 1-3",0.0002689 and 0.0002614 and 0.0002307
same,second-order,"[1]; Time 5058 sec, [B]0 = 250, Replicates 1-3",0.0002728 and 0.000267 and 0.0002367
same,second-order,"[1]; Time 5239 sec, [B]0 = 250, Replicates 1-3",0.0002767 and 0.0002692 and 0.0002406
same,second-order,"[1]; Time 5419 sec, [B]0 = 250, Replicates 1-3",0.0002789 and 0.0002725 and 0.0002433
same,second-order,"[1]; Time 5600 sec, [B]0 = 250, Replicates 1-3",0.0002833 and 0.0002764 and 0.0002471
same,second-order,"[1]; Time 5781 sec, [B]0 = 250, Replicates 1-3",0.0002878 and 0.0002803 and 0.0002499
same,second-order,"[1]; Time 5961 sec, [B]0 = 250, Replicates 1-3",0.0002906 and 0.000283 and 0.0002554
same,remaining [A],"[2]; Replicate 1, time 576 sec",85.1676
same,remaining [B],"[2]; Replicate 1, time 576 sec, [B]0 = 250",231.048
same,second-order,"[2]; Replicate 1, time 576 sec, second-order plot value",0.0008369
same,remaining [A],"[2]; Replicate 1, time 606 sec",84.6546
same,remaining [B],"[2]; Replicate 1, time 606 sec, [B]0 = 250",230.535
same,second-order,"[2]; Replicate 1, time 606 sec, second-order plot value",0.0008631
same,remaining [A],"[2]; Replicate 2, time 576 sec",85.8231
same,remaining [B],"[2]; Replicate 2, time 576 sec, [B]0=250",232.681
same,second-order,"[2]; Replicate 2, time 576 sec, second-order plot value",0.0007628
same,remaining [A],"[2]; Replicate 2, time 606 sec",85.3129
same,remaining [B],"[2]; Replicate 2, time 606 sec, [B]0=250",232.171
same,second-order,"[2]; Replicate 2, time 606 sec, second-order plot value",0.0007885
same,remaining [A],"[2]; Replicate 3, time 576 sec",89.9918
same,remaining [B],"[2]; Replicate 3, time 576 sec, [B]0=250",235.444
same,second-order,"[2]; Replicate 3, time 576 sec, second-order plot value",0.0006183
same,remaining [A],"[2]; Replicate 3, time 606 sec",89.4236
same,remaining [B],"[2]; Replicate 3, time 606 sec, [B]0=250",234.876
same,second-order,"[2]; Replicate 3, time 606 sec, second-order plot value",0.0006452
same,remaining [B],"[2]; time 0 sec, [B]0 = 250, replicates 1-3",249.513 and 244.642 and 245.947
same,second-order,"[2]; time 0 sec, replicates 1-3",0.0001617 and 1.87e-5 and 0.0002136
same,remaining [B],"[2]; time 30 sec, [B]0 = 250, replicates 1-3",248.485 and 243.217 and 245.21
same,second-order,"[2]; time 30 sec, replicates 1-3",0.0001921 and 5.857e-5 and 0.0002732
same,remaining [B],"[2]; time 60 sec, [B]0 = 250, replicates 1-3",247.619 and 242.647 and 243.934
same,second-order,"[2]; time 60 sec, replicates 1-3",0.0002455 and 9.259e-5 and 0.0002974
same,remaining [B],"[2]; time 91 sec, [B]0 = 250, replicates 1-3",246.645 and 241.963 and 243.197
same,second-order,"[2]; time 91 sec, replicates 1-3",0.0002767 and 0.0001313 and 0.0003267
same,remaining [B],"[2]; time 121 sec, [B]0 = 250, replicates 1-3",245.942 and 241.222 and 242.404
same,second-order,"[2]; time 121 sec, replicates 1-3",0.0003108 and 0.0001597 and 0.0003587
same,remaining [B],"[2]; time 151 sec, [B]0 = 250, replicates 1-3",245.265 and 240.31 and 241.667
same,second-order,"[2]; time 151 sec, replicates 1-3",0.0003428 and 0.0001872 and 0.0003986
same,remaining [B],"[2]; time 182 sec, [B]0 = 250, replicates 1-3",244.291 and 239.712 and 241.043
same,second-order,"[2]; time 182 sec, replicates 1-3",0.0003702 and 0.0002272 and 0.0004251
same,remaining [B],"[2]; time 212 sec, [B]0 = 250, replicates 1-3",243.723 and 239.142 and 240.505
same,second-order,"[2]; time 212 sec, replicates 1-3",0.000394 and 0.0002509 and 0.0004506
same,remaining [B],"[2]; time 242 sec, [B]0 = 250, replicates 1-3",242.993 and 238.344 and 239.824
same,second-order,"[2]; time 242 sec, replicates 1-3",0.0004243 and 0.0002815 and 0.0004866
same,remaining [B],"[2]; time 273 sec, [B]0 = 250, replicates 1-3",242.1 and 237.717 and 239.002
same,second-order,"[2]; time 273 sec, replicates 1-3",0.0004614 and 0.0003194 and 0.0005152
same,remaining [B],"[2]; time 303 sec, [B]0 = 250, replicates 1-3",241.397 and 237.004 and 238.492
same,second-order,"[2]; time 303 sec, replicates 1-3",0.0004847 and 0.0003496 and 0.000548
same,remaining [B],"[2]; time 333 sec, [B]0 = 250, replicates 1-3",240.774 and 236.377 and 237.897
same,second-order,"[2]; time 333 sec, replicates 1-3",0.000512 and 0.0003766 and 0.0005771
same,remaining [B],"[2]; time 364 sec, [B]0 = 250, replicates 1-3",239.963 and 235.665 and 237.16
same,second-order,"[2]; time 364 sec, replicates 1-3",0.0005463 and 0.0004122 and 0.0006106
same,remaining [B],"[2]; time 394 sec, [B]0 = 250, replicates 1-3",239.367 and 234.981 and 236.423
same,second-order,"[2]; time 394 sec, replicates 1-3",0.0005809 and 0.0004386 and 0.0006431
same,remaining [B],"[2]; time 424 sec, [B]0 = 250, replicates 1-3",238.745 and 234.154 and 235.799
same,second-order,"[2]; time 424 sec, replicates 1-3",0.0006105 and 0.0004664 and 0.0006829
same,remaining [B],"[2]; time 454 sec, [B]0 = 250, replicates 1-3",238.204 and 233.641 and 235.374
same,second-order,"[2]; time 454 sec, replicates 1-3",0.0006308 and 0.0004908 and 0.0007078
same,remaining [B],"[2]; time 485 sec, [B]0 = 250, replicates 1-3",237.419 and 232.929 and 234.552
same,second-order,"[2]; time 485 sec, replicates 1-3",0.0006705 and 0.0005265 and 0.0007427
same,remaining [B],"[2]; time 515 sec, [B]0 = 250, replicates 1-3",236.662 and 232.416 and 234.155
same,second-order,"[2]; time 515 sec, replicates 1-3",0.0006899 and 0.0005614 and 0.0007681
same,remaining [B],"[2]; time 545 sec, [B]0 = 250, replicates 1-3",236.148 and 231.703 and 233.702
same,second-order,"[2]; time 545 sec, replicates 1-3",0.0007121 and 0.0005853 and 0.0008038
